Experiments:
Wild Type ALK kinase = target: T1, Wild Type ALK kinase (Homo sapiens, UniProt Q9UM73); assay: HTRF KinEASE-TK assay, inhibitory activity on wild type ALK kinase; assay type: biochemical; conditions: wild type ALK 1 ng/μl, substrate 1 μM, 30° C. 35 minutes, read-out: Inhibition on ALK kinases (wildtype), IC50
T1 construct: purchased Sino-US Crown Bioscience, Inc. batch number ALK 20110607
Summary of the method: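 ALK kinase at 1 ng/μl and substrate at 1 μM were reacted with compound (1% DMSO) in buffer with 5 mM MgCl2 and 1 mM DTT for 35 min at 30 °C. HTRF detection used the 665/615 ratio, normalised to no-compound wells and to 10.4 μM LDK-378 wells. IC50 came from a concentration-response fit.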

Karpas-299 cell line = assay: CellTiter-Glo cell proliferation inhibition on Karpas-299 cell line; assay type: cell-based; conditions: Homo sapiens, 96 h, Karpas-299 cells, 5000 cells/well, 4 days drug treatment
Summary of the method: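 CellTiter-Glo luminescence measured after 4-day compound exposure (0.5% DMSO final) of Karpas-299 cells seeded at 5000/well in RPMI-1640 with 10% FBS, 37 °C, 5% CO2. IC50 derived from percent inhibition relative to vehicle wells.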

T1 sequence (Q9UM73 19-1620): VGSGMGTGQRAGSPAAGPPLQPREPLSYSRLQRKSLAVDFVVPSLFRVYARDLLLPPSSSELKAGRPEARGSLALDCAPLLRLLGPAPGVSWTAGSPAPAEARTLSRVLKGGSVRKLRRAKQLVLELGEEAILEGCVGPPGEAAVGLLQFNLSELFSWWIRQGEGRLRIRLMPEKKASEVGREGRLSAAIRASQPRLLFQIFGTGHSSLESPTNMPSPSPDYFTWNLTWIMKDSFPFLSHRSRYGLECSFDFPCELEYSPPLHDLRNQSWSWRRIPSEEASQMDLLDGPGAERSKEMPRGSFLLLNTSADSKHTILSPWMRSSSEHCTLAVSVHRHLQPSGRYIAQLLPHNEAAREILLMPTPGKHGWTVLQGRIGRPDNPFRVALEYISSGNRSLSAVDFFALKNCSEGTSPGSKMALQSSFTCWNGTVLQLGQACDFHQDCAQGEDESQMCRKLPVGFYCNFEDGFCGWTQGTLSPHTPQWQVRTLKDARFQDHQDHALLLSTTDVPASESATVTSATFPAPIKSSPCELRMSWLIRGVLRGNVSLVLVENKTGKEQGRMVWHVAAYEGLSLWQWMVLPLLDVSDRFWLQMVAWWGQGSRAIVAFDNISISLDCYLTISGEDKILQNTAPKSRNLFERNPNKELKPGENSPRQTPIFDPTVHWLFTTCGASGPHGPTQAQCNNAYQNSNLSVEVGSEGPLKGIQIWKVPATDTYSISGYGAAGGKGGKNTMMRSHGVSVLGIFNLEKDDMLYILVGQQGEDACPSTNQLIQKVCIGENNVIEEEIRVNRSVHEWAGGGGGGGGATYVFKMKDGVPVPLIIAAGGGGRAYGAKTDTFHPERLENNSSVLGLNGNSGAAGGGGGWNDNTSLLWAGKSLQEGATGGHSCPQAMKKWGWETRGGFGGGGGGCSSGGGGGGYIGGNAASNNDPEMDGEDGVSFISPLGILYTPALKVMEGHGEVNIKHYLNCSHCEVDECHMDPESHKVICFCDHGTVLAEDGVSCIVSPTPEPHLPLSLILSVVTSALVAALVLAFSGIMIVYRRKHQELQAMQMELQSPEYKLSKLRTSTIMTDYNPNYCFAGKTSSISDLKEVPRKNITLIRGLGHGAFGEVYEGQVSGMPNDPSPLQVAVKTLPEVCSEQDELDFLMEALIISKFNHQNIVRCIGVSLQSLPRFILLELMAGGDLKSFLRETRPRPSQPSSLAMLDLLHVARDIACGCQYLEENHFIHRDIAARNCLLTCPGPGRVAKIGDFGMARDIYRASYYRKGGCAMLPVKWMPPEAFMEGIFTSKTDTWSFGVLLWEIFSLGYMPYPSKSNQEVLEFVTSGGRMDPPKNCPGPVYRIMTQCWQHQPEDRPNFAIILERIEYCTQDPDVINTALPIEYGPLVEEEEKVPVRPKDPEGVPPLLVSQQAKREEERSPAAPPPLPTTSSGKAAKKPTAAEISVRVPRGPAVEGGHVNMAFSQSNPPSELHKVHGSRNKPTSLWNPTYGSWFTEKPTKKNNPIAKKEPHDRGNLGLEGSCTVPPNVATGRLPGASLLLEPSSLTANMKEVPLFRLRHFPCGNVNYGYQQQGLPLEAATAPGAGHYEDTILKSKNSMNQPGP

IC50 (Wild Type ALK kinase) [nM]	IC50 (Karpas-299 cell line) [nM]	SMILES
9	67	Cc1cc(Nc2ncc(Cl)c(Nc3cn(C)nc3S(=O)(=O)C(C)C)n2)c(OC(CF)CF)cc1C1CCNCC1 [Final product 8]
5	16	Cc1cc(Nc2ncc(Cl)c(Nc3cn(C)nc3S(=O)(=O)C(C)C)n2)c(OC2CC2)cc1C1CCNC1 (stereo not shown) [Final product 26]
11	36	CC(C)CS(=O)(=O)c1nn(C)cc1Nc1nc(Nc2ccc(C3CCNCC3)cc2OC2CC2)ncc1Cl [Final product 17]
1	4	CC(C)S(=O)(=O)c1nn(C)cc1Nc1nc(Nc2ccc(C3CCN(C)C3)cc2OC2CC2)ncc1Cl (stereo not shown) [Final product 41]
10	43	Cc1cc(Nc2ncc(Cl)c(Nc3cn(C)nc3S(=O)(=O)C(C)C)n2)c(OCC2CC2)cc1C1CCNCC1 [Final product 12]
7	20	Cc1cc(Nc2ncc(Cl)c(Nc3cn(C)nc3S(=O)(=O)C(C)C)n2)c(OC(F)(F)F)cc1C1CCNCC1 [Final product 10]
6	37	Cc1cc(Nc2ncc(Cl)c(Nc3cn(C4CC4)nc3S(=O)(=O)C(C)C)n2)c(OC(C)C)cc1C1CCNCC1 [Final product 5]
8	21	CCC(C)S(=O)(=O)c1nn(C)cc1Nc1nc(Nc2cc(C)c(C3CCNCC3)cc2OC(C)C)ncc1Cl (stereo not shown) [Final product 7]
